In brackets after ≈: the same amount, converted by molar mass.
Assays:
[1] = test system: S. aureus ATCC 25923, E. coli ATCC 25922, C. albicans ATCC 10231; experiment: Broth microdilution antimicrobial assay, statements pooled over the three strains; assay type: cell-based; settings: stated for S. aureus, E. coli and C. albicans together; read-out: MIC toward the three selected strains
Method: The antimicrobial activity of the compounds was assessed by determining the Minimum Inhibitory Concentration (MIC) by a well‐established broth microdilution procedure in microtiter plates and in compliance with the Clinical and Laboratory Standards Institute (CLSI) guidelines.
In short, microbial inocula were prepared at 0.5 McFarland in PBS and, subsequently, bacterial suspensions were diluted 1:200 in Mueller–Hinton broth (Sigma‐Aldrich, St. Louis, MO, USA), while fungal inoculum was diluted 1:20 in RPMI‐1640 medium (Gibco®, ThermoFisher Scientific Inc., Waltham, MA, USA), containing glucose 2%, 0.3% levo‐glutamine buffered to pH 7.0 with 0.165 M 3‐(N‐morpholino) propanesulfonic acid (MOPS). A total of 100 µL of these microbial suspensions was introduced into a 96‐well microplate and incubated with 100 µL of the compounds, two‐fold serially diluted in the range of 100–0.19 µM. Positive controls (microbial suspensions in regular media), negative controls (only compounds), and solvent controls (microbial suspensions incubated with DMSO dilutions) were included in the tests. The plate was incubated at 37°C for 24 h, and subsequently the optical density at 630 nm (OD630nm) was spectrophotometrically measured. Experiments were carried out in triplicate in three biological replicates. […]

E. coli ATCC 25922 = experiment: Broth microdilution antimicrobial assay (MIC, IC50); assay type: cell-based; settings: Escherichia coli, 24 h; for IC50: ATCC25922, 50% growth inhibition, read-out: IC50 [95% confidence interval] Escherichia coli; for MIC: ATCC25922, broth microdilution, 37°C
Method: (§1) Reference strains of Staphylococcus aureus (ATCC 25923), Escherichia coli (ATCC 25922), and Candida albicans (ATCC 10231) were used in this study as microbial models. These strains were purchased from the American Type Culture Collection (ATCC); bacterial cultures were routinely grown on 5% blood agar plate, while fungal cultures on Sabouraud Dextrose Agar (Biolife […]., Milan, Italy). […] In short, microbial inocula were prepared at 0.5 McFarland in PBS and, subsequently, bacterial suspensions were diluted 1:200 in Mueller-Hinton broth (Sigma-Aldrich, St. Louis, MO, USA), while fungal inoculum was diluted 1:20 in RPMI-1640 medium (Gibco®, ThermoFisher Scientific Inc., Waltham, MA, USA), containing glucose 2%, 0.3% levo-glutamine buffered to pH 7.0 with 0.165 M 3-(N-morpholino) propanesulfonic acid (MOPS). A total of 100 μL of these microbial suspensions was introduced into a 96-well microplate and incubated with 100 μL of the compounds, two-fold serially diluted in the range of 100-0.19 μM. Positive controls (microbial suspensions in regular media), negative controls (only compounds), and solvent controls (microbial suspensions incubated with DMSO dilutions) were included in the tests. The plate was incubated at 37°C for 24 h, and subsequently the optical density at 630 nm (OD630nm) was spectrophotometrically measured. Experiments were carried out in triplicate in three biological replicates. […] Statistical analysis was carried out by using GraphPad Prism version 9.4.1 for Windows (GraphPad Software, San Diego, California USA, www.graphpad.com). ^a MIC (Minimum Inhibitory Concentration) were determined in vitro by means of a standardized microdilution assay, in compliance with the Clinical and laboratory Standard Institute (CLSI) guidelines (30). Microbial suspensions were prepared at 0.5 McFarland in PBS, then diluted in the media and transferred in a 96 micro-well plate together with the serially 2-fold dilutions of the compounds. After 24h of incubation at 37°C, microbial growths were evaluated by measuring the Optical Density at 600 nm, then percentage values were obtained as relative to the positive controls (microbial suspensions in regular media).

C. albicans ATCC 10231 = experiment: as above; assay type: cell-based; settings: Candida albicans, 24 h; for IC50: ATCC10231, 50% growth inhibition, read-out: IC50 [95% confidence interval] Candida albicans; for MIC: ATCC10231, broth microdilution, 37°C
Method: as §1

S. aureus ATCC 25923 = experiment: as above; assay type: cell-based; settings: Staphylococcus aureus; for IC50: ATCC25923, 50% growth inhibition, 24 h, read-out: IC50 [95% confidence interval] Staphylococcus aureus; for MIC: ATCC25923, 24 h, broth microdilution, 37°C
Method: as §1

[2] = Cell viability and proliferation assay (WST8/CCK-8); assay type: cell-based; settings: African green monkey, Vero cells (ATCC CCL-81), 48 h treatment, CCK-8; read-out: CC50 [95% CI] Vero cells
Method: Vero cell line (ATCC CCL‐81) was selected as a model system to investigate the overall effect of chalcones on non‐malignant mammalian cells. […] For experiments, cells were seeded into 96‐well plates at 10^4 cells/well and incubated at 37°C for 24 h. Following washes with PBS, the cell monolayer was incubated with 100 µL of medium containing the twofold serial dilutions of the compounds. Both untreated cells and cells incubated with medium containing solvent dilutions were included in each experiment as controls. The cell viability was assessed by a WST8‐based assay according to the manufacturer's instructions (CCK‐8, Cell Counting Kit‐8, Dojindo Molecular Technologies, Rockville, MD, USA). After 48 h of incubation, culture medium was removed from each well, the monolayer was washed with PBS, and 100 µL of fresh medium containing 10 µL of CCK‐8 solution was added. Following a 2 h incubation at 37°C, the OD450nm was read, and data were expressed as the percentage of cell viability relative to the untreated controls. The CC50 was obtained on the corresponding dose–response curves generated as previously reported for IC50 values. Experiments were carried out in triplicate in three biological replicates.

[3] = test system: human red blood cells (hRBCs); experiment: Hemolytic activity assay; assay type: cell-based; settings: 25 µM, 90 min, 37°C
Method: The hemolytic activity of some selected compounds was evaluated as the amount of hemoglobin released by the disruption of human red blood cells (hRBCs). For the experiments, fresh hRBCs were collected by centrifugation at 1500g for 10 min, washed three times with PBS, and resuspended to a final concentration of 4% w/v hRBCs in PBS. Then, 100 µL of hRBCs suspension and an equal volume of the twofold dilutions of the antimicrobial peptides were mixed in a 96‐well plate and incubated for 90 min at 37°C. After centrifugation at 1000g for 5 min, the supernatants were transferred into a clear 96‐well plate, and OD405nm was read. Untreated hRBCs (incubated with PBS) and hRBCs incubated with 1% Triton X‐100 were employed as negative and positive controls, respectively. The hemolysis percentage was calculated as [OD405nm (sample) − OD4_05nm (negative control)]/[OD405nm (positive control) − OD405nm (negative control)] × 100. Minimal hemolytic concentrations (MHCs) were defined as the compound concentration causing 10% hemolysis. Three independent experiments were performed in triplicate.

E. coli = experiment: Colistin association assay; assay type: cell-based, Escherichia coli; settings: colistin at sub-inhibitory concentration (MIC/8 = 0.027 µM)
Method: This is a confirmation of the ability of these new QPySs to also affect Gram‐negative proliferation once they pass through the OM.
The dry powder of the chalcone‐based QPySs was resuspended in dimethylsulfoxide (DMSO) at 20 mM and used as stock solutions. For biological investigations, compounds were used in the range 100–0.78 µM, and the solvent in the corresponding percentage range. The following commercially available antimicrobials and toxic clinical drugs were purchased from Sigma‐Aldrich (St. Louis, MO, USA), dissolved in water, and used as reference controls. Gentamicin and ampicillin were used in the range 107.69–0.82 µM and 143.23–1.12 µM, respectively; the colistin was used at 0.03 µM in association with the chalcone‐based QASs with E. coli. The fluconazole was used in the assays with C. albicans in the range 3.27–0.03 µM. […]
In short, microbial inocula were prepared at 0.5 McFarland in PBS and, subsequently, bacterial suspensions were diluted 1:200 in Mueller–Hinton broth (Sigma‐Aldrich, St. Louis, MO, USA), while fungal inoculum was diluted 1:20 in RPMI‐1640 medium (Gibco®, ThermoFisher Scientific Inc., Waltham, MA, USA), containing glucose 2%, 0.3% levo‐glutamine buffered to pH 7.0 with 0.165 M 3‐(N‐morpholino) propanesulfonic acid (MOPS). […] The plate was incubated at 37°C for 24 h, and subsequently the optical density at 630 nm (OD630nm) was spectrophotometrically measured. […]

Row | Compound | MIC [1] [µM] | IC50 (E. coli ATCC 25922) [µM] | MIC (E. coli ATCC 25922) [µM] | IC50 (C. albicans ATCC 10231) [µM] | MIC (C. albicans ATCC 10231) [µM] | IC50 (S. aureus ATCC 25923) [µM] | MIC (S. aureus ATCC 25923) [µM] | CC50 at 48 h [2] [µM] | hemolytic activity [3] [%] | MIC Escherichia coli in association with colistin (E. coli) [µM]
1 | C#CCOc1ccc(C(=O)/C=C/c2ccc[n+](CCCCCC[n+]3cccc(/C=C/C(=O)c4ccc(OCC#C)cc4OCC#C)c3)c2)c(OCC#C)c1 [Compound 10, 1,1′‐(Hexane‐1,6‐diyl)bis{3‐[(E)‐3‐(2,4‐bis‐prop‐2‐yn‐1‐yloxyphenyl)‐3‐oxoprop‐1‐en‐1‐yl]pyridin‐1‐ium} bromide] | ≥ 50 | 46 | 50 | 95 | 100 | 58.3 | 50 | > 100 |  | 
2 | C#CCOc1ccc(C(=O)/C=C/c2ccc[n+](CCCCCCCCCCCC)c2)c(OCC#C)c1.[Br-] [Compound 5, (E)‐3‐{3‐[2,4‐Bis(prop‐2‐yn‐1‐yloxy)phenyl]‐3‐oxoprop‐1‐en‐1‐yl}‐1‐dodecylpyridin‐1‐ium bromide] |  | 5.88 | 6.25 | 1.57 | 3.12 | 1.62 | 3.12 | 14 | 40.9 | 
3 | CNC(C)C1CCC(N)C(OC2C(N)CC(N)C(OC3OCC(C)(O)C(NC)C3O)C2O)O1 (stereo not shown) [GEN, gentamicin, reference compound] |  | 6.11 | 13.1 (≈ 6.25 µg/mL) |  |  | 4 | 6.54 (≈ 3.12 µg/mL) |  |  | 
4 | C#CCOc1ccc(C(=O)/C=C/c2ccc[n+](CCCCCCCCCCCCCCCC)c2)c(OCC#C)c1 [Compound 7, (E)‐3‐{3‐[2,4‐Bis(prop‐2‐yn‐1‐yloxy)phenyl]‐3‐oxoprop‐1‐en‐1‐yl}‐1‐hexadecylpyridin‐1‐ium] |  |  | > 100 | 5.76 | 6.25 | 4.21 | 12.5 | 5.38 |  | 
5 | COc1cccc2c1C(=O)c1c(O)c3c(c(O)c1C2=O)C[C@@](O)(C(=O)CO)C[C@@H]3O[C@H]1C[C@H](N)[C@H](O)[C@H](C)O1 [DOX, doxorubicin, reference compound] |  |  |  |  |  |  |  | 70.6 |  | 
6 | OC(Cn1cncn1)(Cn1cncn1)c1ccc(F)cc1F [FLC, fluconazole, reference compound] |  |  |  | 0.23 | 0.82 (≈ 0.251 µg/mL) |  |  |  |  | 
7 | C#CCOc1ccc(C(=O)/C=C/c2ccc[n+](CCCCCCCCCCCCCCCCCC)c2)c(OCC#C)c1 [Compound 8, (E)‐3‐{3‐[2,4‐Bis(prop‐2‐yn‐1‐yloxy)phenyl]‐3‐oxoprop‐1‐en‐1‐yl}‐1‐octadecylpyridin‐1‐ium bromide] |  |  | > 100 | 52.5 | > 100 | 14.2 | 100 | 5.73 |  | 
8 | C#CCOc1ccc(C(=O)/C=C/c2ccc[n+](CCCCCC)c2)c(OCC#C)c1.[Br-] [Compound 2, (E)‐3‐{3‐[2,4‐Bis(prop‐2‐yn‐1‐yloxy)phenyl]‐3‐oxoprop‐1‐en‐1‐yl}‐1‐hexylpyridin‐1‐ium bromide] |  |  | > 100 | 68.7 | 100 | 34.4 | 50 | > 100 |  | 50
9 | C#CCOc1ccc(C(=O)/C=C/c2ccc[n+](CCCCCCCC)c2)c(OCC#C)c1 [Compound 3, (E)‐3‐{3‐[2,4‐Bis(prop‐2‐yn‐1‐yloxy)phenyl]‐3‐oxoprop‐1‐en‐1‐yl}‐1‐octylpyridin‐1‐ium bromide] |  | 11 | 12.5 | 30.5 | 50 | 2.65 | 6.25 | 47 |  | 

Reference: paper PMC12066977, “Alkyl Tail Variation on Chalcone‐Based Quaternary Pyridinium Salts as Rule‐of‐Thumb for Antimicrobial Activity” (Archiv Der Pharmazie, 2025)
